# Paper PMC11943946, “Anti-Neuroinflammatory Eremophilane Sesquiterpenoids from Marine-Derived Fungus Phoma sp. DXH009” (Marine Drugs, 2025)
# Columns and labels:
# [1] = system: LPS-stimulated microglia BV2 cells; assay: Cellular NO production in LPS-stimulated BV2 microglia; type: cell-based; details: for NO inhibition (SAR statement) / reduction in NO content: 20 μM; for NO inhibition (SAR statement): relative to analogues with intact C-6–C-7 / C-11–C-12 motifs; for reduction in NO content: vs LPS control cells
# Procedure: (§1) The cellular NO levels were determined using a Nitric Oxide Assay Kit with DAF-FM DA (Beyotime, Nantong, China). A total of 5000 cells were planted in 96-well plates and maintained for 24 h. Then, they were induced with 1 μg/mL lipopolysaccharide (LPS) in the presence or absence of compounds at a final concentration of 20 μM for 24 h. Untreated wells were used as control. Then, supernatant of the culture medium was investigated with a Nitric Oxide Assay Kit with DAF-FM DA (Beyotime, S0020S) per the manufacturer’s instruction. Cells were stained with 2 µM hochest 33,342 at room temperature for 10 min, then cell numbers were auto-counted using the high-content screening system. The cell number in the LPS control group was set as 100%, and the relative cell survival ratios were calculated.
# [2] = system: LPS-treated mice; assay: LPS-induced neuroinflammation mouse model (cortex and hippocampus); type: in vivo; details: intraperitoneal; for expression levels of IBA1 in cortex / inflammatory markers iNOS, COX2, IL-1β, IL-6 in cortex (mRNA and protein) / protein level of ARG 1 in cortex: 5 at 10, 20, 40 mg/kg or Dex 15 mg/kg
# Procedure: (§2) Cells or tissues were lysed with RIPA lysis buffer containing protease and phosphatase inhibitor cocktail and total protein was extracted and quantified by using a protein determination kit (Thermo Fisher Scientific, Cat#23227, Beijing, China). Protein samples were prepared by centrifugation at the speed of 12,000× g for 30 min at 4 °C; the supernatant was boiled at 95 °C for 10 min and then subjected to SDS-PAGE. An amount of 15 µg of total protein was separated by electrophoresis in a 10% SDS-polyacrylamide gel and transferred to a PVDF membrane (Thermo Fisher Scientific, Cat#88520, Beijing, China). After blocking, the full membranes were cropped according to the molecular weight of examined proteins and incubated with antibodies at 4 °C overnight. The used antibodies were listed as follows: anti-iNOS (Abcam, ab178945, Cambridge, UK), anti-COX2 (Affinity, AF7003, Changzhou, China), anti-actin (Affinity Biosciences, AF7018, Changzhou, China), anti-ARG1 (Proteintech, 66129, Wuhan, China), anti-IL-1β (Proteintech, 26048, Wuhan, China), anti-GAPDH (Bioss, bs-41373R, Beijing, China), anti-IL-6 (Affinity, DF6087, Changzhou, China), anti-TNFα (Affinity, AF7014, Changzhou, China), anti-IBA1 (Affinity, DF6442, Changzhou, China). The membranes were washed to remove unbound antibodies and then incubated with HRP-conjugated secondary antibodies at room temperature for 45 min. Protein bands were visualized one by one with an ECL kit (Millipore, Cat#6-201BP, Beijing, China). The uncropped immunoblot data were uploaded as a Supplementary File. Densitometry analysis was performed using Image J Software, Version 1.54p (Rawak Software Inc., Stuttgart, Germany) relative to the loading control, β-actin; GAPDH; or tubulin. The average protein levels of control group cells or control mice from each independent experiment or mice were set as 1, and relative changes were calculated.
# Male, 4-week-old C57BL/6J mice were obtained from Peking SiPeiFu Biotechnology Co., Ltd. (Beijing, China), with quality certificate number No.110324241107423512. After acclimation, mice were weighted and divided randomly into 6 groups, including control, LPS control mice, LPS + dexamethasone (Dex, 15 mg/kg), and LPS + HN-005 (10, 20, 40 mg/kg). Mice were intraperitoneally injected with dexamethasone or compound 5 for 2 days, while the control and LPS control group was intraperitoneally injected with an identical volume of 200 μL 0.9% saline. A total of 6 mg/kg LPS was intraperitoneally injected on the second day beyond the control group. After treatment, the mice were weighed and euthanized for brain anatomy.
# Mice were anesthetized and their chest dissected to expose the heart sufficiently. The infusion needle penetrated the ventriculus sinister by about 0.5 cm and perfused it with 40 mL sterile PBS buffer until the liver turned white. Then, the prefrontal cortex and hippocampus were separated and preserved. For the immunochemistry assay, the cortex and hippocampus were fixed at 4% PFA at room temperature for 2–4 days. The fixed brain was embedded into paraffin and sectioned at 5 μm in the coronal plane using a sliding microtone (Leica, CM1950, Weztlar, Germany), then blocked with 5% goat serum TBS buffer at room temperature for one hour. After blocking, tissue slides were incubated with the first antibody against IBA1 (Affinity, DF6442, Changzhou, China) at 4 °C for 16 h, then rinsed with TBST three times and incubated with Alex flour 555 conjugated goat anti-rabbit secondary antibody (1:500) and DAPI (1:1000) at 4 °C overnight. A section incubated only with the secondary antibody was used as a negative control. For HE staining, the section was stained with an H&E staining kit (Servicebio, G1076, Wuhan, China) per the manufacturer’s instruction. Fluorescence images were acquired using a confocal microscope (Olympus, Tokyo, Japan). […]
# [3] = system: Amaranthus hypochondriacus; set-up: method as in PMID 25603174; details: read-out: IC50 herbicidal effect (radicle growth); cited from earlier work
# [4] = system: Echinochloa crus-galli; set-up: method as in PMID 25603174; details: read-out: IC50 herbicidal effect (radicle growth); cited from earlier work
# [5] = system: NF-κB p65; assay: NF-κB p65 signaling pathway (Western blot); type: cell-based; details: 2.5, 5, 10 μM, LPS-treated BV2 cells
# Procedure: as §2, with “The membranes were washed to remove unbound antibodies and then incubated with HRP-conjugated secondary antibodies at room temperature for 45 min. Protein bands were visualized one by one with an ECL kit (Millipore, Cat#6-201BP, Beijing, China). The uncropped immunoblot data were uploaded as a Supplementary File. Densitometry analysis was performed using Image J Software, Version 1.54p (Rawak Software Inc., Stuttgart, Germany) relative to the loading control, β-actin; GAPDH; or tubulin.” left out
# [6] = BV2 cell viability / proliferation (CCK-8, cell count); type: cell-based; details: mouse; BV2 cells, 24 h; read-out: IC50 against BV2 cell proliferation (cytotoxicity)
# Procedure: as §1
# (§3) BV2 microglial cells were seeded into 96-well plates at a density of 1 × 10^4 cells/well and allowed to adhere for 24 h. Cells were then exposed to different concentrations (20 μM for 1–9; 0, 1, 5, 10, 20, 50, 100 μM for 5) of the test compounds (1–9) in triplicate, with DMSO concentrations normalized across all treatment groups. After 24 h incubation, 10 μL CCK-8 reagent (Beyotime Biotechnology, Nantong, China) was added to each well, followed by 30 min incubation at 37 °C. Absorbance at 450 nm was quantified using a BioTek microplate reader (BioTek, Winooski, VT, USA), with cell viability calculated relative to vehicle-treated controls.
# [7] = system: Ehrlich carcinoma cells; set-up: method as in doi:10.1007/s10600-014-0836-9; details: cited from earlier work
# [8] = system: LPS-treated BV2 microglia cells; assay: Inflammatory markers in LPS-treated microglia cells (Western blot); type: cell-based; details: 2.5, 5, 10 μM
# Procedure: as §2, with “The membranes were washed to remove unbound antibodies and then incubated with HRP-conjugated secondary antibodies at room temperature for 45 min. Protein bands were visualized one by one with an ECL kit (Millipore, Cat#6-201BP, Beijing, China). The uncropped immunoblot data were uploaded as a Supplementary File. Densitometry analysis was performed using Image J Software, Version 1.54p (Rawak Software Inc., Stuttgart, Germany) relative to the loading control, β-actin; GAPDH; or tubulin.” left out
# [9] = system: LPS-treated BV2 microglia cells; assay: Microglia polarization markers ARG 1 and iNOS (immunofluorescence, immunoblot); type: cell-based; details: 2.5, 5, 10 μM, LPS 0.5 μg/mL, 24 h
# Procedure: Cells or tissues were lysed with RIPA lysis buffer containing protease and phosphatase inhibitor cocktail and total protein was extracted and quantified by using a protein determination kit (Thermo Fisher Scientific, Cat#23227, Beijing, China). Protein samples were prepared by centrifugation at the speed of 12,000× g for 30 min at 4 °C; the supernatant was boiled at 95 °C for 10 min and then subjected to SDS-PAGE. An amount of 15 µg of total protein was separated by electrophoresis in a 10% SDS-polyacrylamide gel and transferred to a PVDF membrane (Thermo Fisher Scientific, Cat#88520, Beijing, China). After blocking, the full membranes were cropped according to the molecular weight of examined proteins and incubated with antibodies at 4 °C overnight. […] The average protein levels of control group cells or control mice from each independent experiment or mice were set as 1, and relative changes were calculated.
# For the immunofluorescence assay, cells were fixed with pre-cold ethanol at –20 °C, then blocked and incubated with anti-iNOS (Abcam, ab178945) and mouse anti-ARG 1 (Proteintech, 66129) at 4 °C overnight. […] Fluorescence images were acquired using a confocal microscope (Olympus, Tokyo, Japan).
# [10] = system: Vero cells; set-up: method as in PMID 25734623; details: noncancerous Vero cells; read-out: IC50 toxicity; cited from earlier work
# [11] = system: Lactuca sativa; set-up: method as in doi:10.1584/jpestics.14.223; details: 250 ppm; cited from earlier work
# [12] = system: BV2 microglial cells; assay: BV2 cell viability / proliferation (CCK-8, cell count); type: cell-based; details: 20 µM
# Procedure: as §1, §3
# [13] = system: APP/PS1 transgenic mice; set-up: method as in PMID 39004599, PMID 25686105; details: cited from earlier work
# [14] = system: early-stage PD participants; set-up: method as in PMID 38504306; details: Phase II trial NCT04542915; cited from earlier work
# [15] = system: NF-κB signaling; set-up: method as in PMID 38616356, PMID 31590042; details: BV2 microglia; read-out: IC50 suppressing NF-κB signaling; cited from earlier work
# [16] = system: AD mice; set-up: method as in PMID 38616356, PMID 31590042; details: relative to untreated AD mice; cited from earlier work
# [17] = system: LPS-activated BV-2 microglia; set-up: method as in PMID 34605647; details: read-out: IC50 suppressing nitric oxide production; cited from earlier work
smiles,measurement,setting,value
"CC1C(O)CCC2=CC(=O)C(C(C)(C)O)=CC21C (stereo not shown) [Compound 2, Phomenone D]",NO inhibition (SAR statement),[1],high reduction in NO inhibition
"C=C(C)[C@]1(O)C[C@@]2(C)C(=CC1=O)CC[C@@H](O)[C@@H]2C [Compound 3, Hydroxypetasol]",NO inhibition (SAR statement),[1],high reduction in NO inhibition
"C=C(C)[C@@]12O[C@@H]1[C@@]1(C)C(=C[C@@H]2O)CC[C@@H](O)[C@@H]1C [Compound 5, dihydrosporogen AO-1]",expression levels of IBA1 in cortex,[2],markedly decreased the expression levels of IBA1
same,"inflammatory markers iNOS, COX2, IL-1β, IL-6 in cortex (mRNA and protein)",[2],efficiently suppressed the activation of these inflammatory markers
same,protein level of ARG 1 in cortex,[2],dose-dependently increased the protein level of ARG 1
same,neuroinflammation in hippocampus tissue,"[2]; 10, 20, 40 mg/kg",inhibits neuroinflammation in the hippocampus tissue
same,IC50,[3],170 µM
same,IC50,[4],300 µM
same,activation of NF-κB axis (phosphorylated NF-κB p65),[5],dose-dependently reversed the activation of the NF-κB axis
same,total level of NF-κB p65,[5],no major change
same,IC50,[6],38 µM
same,ED50 cytotoxicity,[7],400 µM
same,"level of inflammatory markers IBA1, COX-2, TNF-α, IL-1β, IL-6",[8],efficiently reversed the increases in the level of inflammatory markers
same,iNOS and ARG 1 protein levels,[9],dose-dependently reversed iNOS elevations and ARG 1
same,ratio of ARG 1 to iNOS,[9],corrected the decreased ratio of ARG 1 to iNOS
same,IC50,[10],24000 µM
same,inhibition (radicle growth),[11],70%
same,reduction in NO content,[1]; 24 h,78%
same,EC50,"[1]; Mus musculus, BV-2, LPS-treated BV2 microglial cells, 24 h, read-out: EC50 in decreasing cellular NO production",3.11 µM
same,selectivity index (SI),"[1]; cytotoxicity IC50 vs NO EC50, BV2 cells",12.2
"C=C(C)[C@@H]1C[C@@]2(C)C(=CC1=O)CC[C@@H](O)[C@@H]2C [Compound 8, petasol]",proliferation inhibition (cytotoxicity),[12],35–85%
"C=C(C)C1=C[C@@]2(C)C(=CC1=O)CC[C@@H](O)[C@@H]2C [Compound 9, 6-dehydropetasol]",proliferation inhibition (cytotoxicity),[12],35–85%
"C[C@@H]1C[C@H]2[C@@H]3CCC4=CC(=O)C=C[C@]4(C)[C@@]3(F)[C@@H](O)C[C@]2(C)[C@@]1(O)C(=O)CO [Dex, dexamethasone, reference compound]",expression levels of IBA1 in cortex,[2],markedly decreased the expression levels of IBA1
same,"inflammatory markers iNOS, COX2, IL-1β, IL-6 in cortex (mRNA and protein)",[2],efficiently suppressed the activation of these inflammatory markers
same,protein level of ARG 1 in cortex,[2],no induction effect was observed
same,reduction in NO content,[1]; 24 h,77%
CC(C)(O)c1coc(S(=O)(=O)NC(=O)Nc2c3c(cc4c2CCC4)CCC3)c1 [MCC950],attenuation of hippocampal IL-1β production,[13],68.5%
Oc1ccc(/C=C/c2cc(O)cc(O)c2)cc1 [Resveratrol],reduction in CSF TNF-α levels,[14],31.6%
COc1cc(/C=C/C(=O)CC(=O)/C=C/c2ccc(O)c(OC)c2)ccc1O [curcumin],IC50,[15],4.7 µM
same,improvement in radial arm maze errors,[16],37.2%
C=C1CO[C@@]2(O)CC3=CC(=O)C(O)=C(C)[C@@]3(C)C[C@@]12O [septoreremophilane F],IC50,[17],12 ± 0.32 µM
